Molecules are shown by their SMILES.

One may read the IC50 as the concentration at which inhibition is half-maximal.

One data set relates to phospho-Akt Ser473. The data set is described as follows: Inhibition of Akt phosphorylation on Ser473 in IgE sensitized, antigen stimulated RBL-2H3 cells. The data set is classed as cell-based, rat. The conditions noted are these: normalized to total Akt, IgE and antigen for 15 min. From the text:
The mast cell degranulation assay using the RBL-2H3 cell line (see Example 27) was also used to determine the status of the PI3K/Akt axis. Activation of PI3K leads to production of PIP3 on the cytosolic side of the lipid bilayer. Akt is recruited to the PIP3 domain and subsequently activated by phosphorylation on residues Ser473 and Thr308. (Franke et al., Cell 81:727-736, (1995)). Once recruited to the membrane, it is phosphorylated and activated by other kinases (Hemmings, Science 275:628-630 (1997); Hemmings. Science 276:534 (1997); Downward, Science 279:673-674 (1998); Alessi et al., EMBO J. 15:6541-6551 (1996)). Western blotting of the phosphorylated Ser473 residue on Akt (phospho-Akt Ser473) is widely used to assess the level of activation of the PI3K/Akt axis.
All buffers and solutions used for the phosphor-Akt Ser473 assay were from Meso Scale Discovery. Tris Lysis Buffer consisted of 150 mM NaCl, 20 mM Tris, pH 7.5, 1 mM EDTA, 1 mM EGTA and 1% Triton-X-100. Complete Tris Lysis Buffer was prepared prior to use by addition of protease inhibitor, phosphatase inhibitors and PMSF. The 10x Tris Wash Buffer consisted of 500 mM Tris, pH 7.5, 1.5 M NaCl and 0.2% Tween-20. Blocker A was made up of bovine serum albumin in Tris Wash Buffer. Read Buffer T was used according to manufacturer's instructions. The Whole Cell Lysate Kits used were phospho-Akt Ser473 (K11100D. Lot K0011749) and total ERK½ (K11107D, Lot K0011698) as a loading control.
Protein assay: protein concentration was determined using the BCA (bicinchoninic acid) Protein Assay kit according to the manufacturer's instructions, Briefly, duplicate 10 μl samples of bovine serum albumin (BSA) standards, blank and lysates were incubated in a 96-well plate with 0.2 ml working reagent for 30 min at 37° C. Plates cooled to room temperature for 5 min and absorbance at 562 nm measured in a multi-mode plate reader. Protein concentrations were calculated using FlexStation 3 software (SoftMax Pro version 5.3). Protein concentration of lysates was determined from a standard curve (BSA) using a linear curve fit.
Phosphoprotein assay: protein phosphorylation was determined using the MULTI-SPOT® Assay System (Meso Scale Discovery), providing simultaneous detection of phosphorylated and total proteins. Briefly, capture antibodies against phosphorylated and total protein are patterned on distinct spots in the same well of 96-well plates. Sandwich immunoassay and electrochemiluminescence detection technology are combined to measure intensity of the emitted light from phosphorylated and total protein spots. For analysis of phosphor-Akt Ser473 was performed according to the manufacturer's instructions. The optimal amount of protein was determined at 5 μg lysate per well for ERK½ and 10 μg/well for phospho-Akt Ser473. Plates were blocked with 25 μl/well Blocker A for 1 h at room temperature with gentle agitation. During this time, the lysates were thawed and diluted to the desired protein concentration in complete Tris Lysis Buffer. Plates were washed four times in Tris Wash Buffer and 25 μl lysate per well added. Plates were incubated for 1-3 h at room temperature with agitation according to the manufacturer's recommendations. Plates were washed four times with Tris Wash Buffer, followed by addition of 25 μl/well of the respective detection antibody and incubation for 1 h at room temperature, with agitation. After a final four washes with Tris Wash Buffer 150 μl/well, Read Buffer T was added, and plates read on a SECTOR Imager 6000 plate reader.
The mean background signal from each plate was subtracted from averaged raw data. The amount of total protein phosphorylaled was expressed as % phosphoprotein according to the manufacturer's (Meso Scale Discovery) Instructions.
Levels of phospho-Akt Ser473 were determined in IgE sensitized and antigen stimulated cells after treatment without (positive control) or with 1, 5 and 25 μM test compound and normalized to levels of total Akt.

Data set [1] concerns RBL-2H3 cells. The data set is described as follows: Maximum tolerated concentration (cytotoxicity by lactate dehydrogenase release). The data set is classed as cell-based, rat. From the text:
A commercially available cytotoxicity test was used (Promega Cytotox-One cat. #67891).
The safety index (SI) of a test compound Is the ratio between the maximum tolerated concentration and the 1C50 and is used as a measure of the relative safety of the test compound.

Data set [2] deals with RBL-2H3 cells. The data set is described as follows: Inhibition of mast cell degranulation (β-hexosaminidase release). Type of data set: cell-based, rat. The following applies: RBL-2H3 cells sensitized with anti-DNP IgE, triggered with DNP-HSA, 1 h preincubation. From the text:
Mast cells are key effector cells involved in allergic and inflammatory diseases, and the Rat Basophilic Leukemia clone 2H3 (RBL-2H3) cell line is a commonly used model of allergen dependent immune modulator release (degranulation) in mast cells. On their surface, they express the high affinity receptor for IgE (FcεRI). Upon binding of antigen-specific IgE to the receptor, cells become sensitized to the IgE specific antigen (allergen). When IgE-sensitized cells then encounter multivalent antigen, the antigen clusters IgE-FcεRI complexes and initiates a signal transduction cascade that leads to degranulation, that is, the release of inflammatory mediators, such as cytokines, eicosanoids, histamine and enzymes. The assay can be used as a screening method to identify immune-modulating compounds, in particular compounds useful in the medical management of allergic and inflammatory diseases and asthma, β-hexosaminidase was previously shown to be released with the same kinetics as histamine (Schwartz et al., J Immunology; 123:1445-1450 (1979)), thus offering a simple means to monitor degranulation. The RBL-2H3 cell line has been successfully used to identify compounds with anti-allergic activity (Choo et al. Planta Med., 69:518-522 (2003)).
Cell Culture: RBL-2H3 cells obtained from the German Collection of Microorganisms and Cell Cultures (ACC312) (Braunschweig, Germany) were maintained in 70% Minimum Essential Medium with Earle's Salts, 20% RPMI 1640 Medium, 10% FBS and 2 mM l-glutamine in 95% air/5% CO2 at 37° C. and routinely checked for mycoplasma contamination. Cells were passaged every 3-4 days; after washing cells once with 35 ml PBS cells were incubated 8 min with 5 ml 0.05% Trypsin-EDTA solution at 37° C. Cells were removed from the incubator, 15 ml culture medium was added and cells were resuspended by repeated pipetting.
Cell seeding: cells were harvested with Trypsin-EDTA as described and 50-100 μl cell suspension seeded Into Costar CellBind 24 well cluster plates (no. 3337). Plates were kept for 30 min at RT under the sterile hood before being transferred to the incubator. Cells were used within one or two days after seeding.
For sensitization, cells for immediate use were sensitized 6-12 h after plating; cells to be used the following day were sensitized 26-38 h after plating. Culture plates were removed from the incubator and checked for cell growth and contamination. The medium was discarded and cells were sensitized with anti-DNP IgE (0.4 μg/ml) in 0.4 ml culture medium overnight. Following overnight sensitization, cells were washed with 0.8 ml pre-warmed TyB and 0.38 ml test compound or vehicle control (supplemented or not with 1% FBS) were added to duplicate wells. Samples were adjusted to contain 1% vehicle for test compounds dissolved in organic solvents. Cells were incubated for 1 h at 37° C. At the end of the incubation period, cells were routinely stimulated with 20 μl DNP-HSA (2 μg/ml; final concentration 0.1 μg/ml) diluted in TyB and cells were incubated for 15 min at 37° C. Alternatively, cells were stimulated with 20 μl […] (final concentration 0.25 μM) or 20 nM […] (final concentration 0.25 μM), both in the absence or presence of 20 nM PMA (final concentration).
Plates were removed from the incubator and immediately centrifuged at 4° C. for 5 min at 250×g and transferred to an ice bath. Aliquots of supernatants, 25 μl, were transferred to 96-well plates. Remaining supernatant was aspirated from control wells and cells were lysed in […] lysis buffer for 5 min at RT on an orbital shaker at 450 rpm under non-sterile conditions. After lysis, 25 μl aliquots of lysates were transferred to 96-well plates.
MUG substrate solution, 100 μl, were added to supernatant and lysate samples and plates were incubated 30 min at 37° C. The reaction was terminated by addition of 150 μl stop solution. Fluorescence was measured at 365 nm excitation and 440 nm emission wavelengths. […]

A short description of data set [3]: Body weight and toxic side-effects in the DTH study. The data set is classed as in vivo, mice. The conditions noted are these: oral 1 mg/kg once daily. The procedure:
Three hours after the last dose, the antigen challenge was performed on the ears as described above. Dexamethasone was given at 1 mg/kg orally by gavage 3 h before sensitization and once daily with the final dose given 3 h prior to antigen challenge (a total of 7 administrations). All administrations were given in a volume of 10 mL/kg.
Such high dosing (overdose) is, however, not suitable for treatment of humans due to severe side effects of the corticosteroid and was only used to validate the responsiveness of the model.

In another data set the test system is BALB/cJW mice. The data set is described as follows: Delayed-type hypersensitivity (DTH) reaction, mouse ear swelling. The data set is classed as in vivo. The conditions noted are these: oral; 1a 100 mg/kg (loading dose, then maintenance doses), dexamethasone 1.0 mg/kg once daily; 24 h after ovalbumin challenge. The procedure:
The anti-inflammatory and anti-allergic effects of compound 1a was assessed in a mouse model of skin delayed-type hypersensitivity (DTH) reactions and compared to a vehicle control and to the reference drug dexamethasone. DTH reactions are antigen-specific cell-mediated immune responses, driven primarily by T helper type 1 (Th1) cells, similar to the tuberculin immunization response. The immune reaction induced by an ovalbumin challenge to animals previously sensitized with ovalbumin in Complete Freund's Adjuvant, is characterized by swelling (edema) at the site of challenge, e.g. the mouse ear. Dexamethasone, an anti-inflammatory steroid, reduces cell-mediated immune responses and was employed to validate the responsiveness of the assay to pharmacological treatment.
Female BALB/cJW mice were bred at the University of Lodz, Lodz, Poland and housed in groups of 8 in makrolon cages with a 12 h light-dark cycle. Mice were given free access to food (Agropol S. j., Motycz, Poland) and water.
Group size was n=8 mice unless otherwise stated. Test compound was freshly prepared before administration.
Sensitization: The protein antigen, ovalbumin, was reconstituted in PBS at 4 mg/ml. […] The emulsion was tested by putting a drop of emulsion onto PBS; if the emulsion remained as a light droplet on the PBS, the emulsion was deemed ready. […]
Challenge: On the sixth day after sensitization, DTH was elicited by challenging animals subcutaneously (gauge 30 needle, B. Braun Melsungen, Melsungen, Germany) in the left ears with 10 μL of a 1% suspension of heat-aggregated ovalbumin (HOVA) (100 μg ovalbumin per mouse). […] Ear thickness was measured with a precise spring-loaded caliper (Art. No, 7309, Mltutoyo, Kawasaki, Japan) before challenge, and 24 h after challenge. […]
To account for individual variability, the increase in right ear thickness, before and 24 h after administration of PBS, was subtracted from the HOVA-induced increase in left ear thickness. The increase in ear thickness was calculated by the difference between ear thickness before and 24 h after antigen challenge. […]

Consider `CCCCCCCCCCCCCC[N+](C)(C)CCCP(=O)([O-])O` [Compound 1c, 3-N,N-Dimethylmyristylammoniopropylphosphonic Acid], for which the “Level of phospho-Akt Ser473” value in the data set on phospho-Akt Ser473 (1 μM) was determined as 83.2 ± 17.3 % positive control; in the data set with phospho-Akt Ser473 (5 μM), 11.7 ± 7.7 % positive control; with phospho-Akt Ser473 (25 μM), 2.2 ± 1.4 % positive control. The “MTC (maximum tolerated concentration)” value in the data set with RBL-2H3 cells [1] (highest concentration not causing cytotoxicity, LDH release) was found to be 200 µM. Besides, in the data set with RBL-2H3 cells [1] (ratio between maximum tolerated concentration and IC50), the “SI (safety index, ratio MTC/IC50)” value turned out to be 71.4. The IC50 with RBL-2H3 cells [2] is 2.8 µM.
Regarding `C[C@@H]1C[C@H]2[C@@H]3CCC4=CC(=O)C=C[C@]4(C)[C@@]3(F)[C@@H](O)C[C@]2(C)[C@@]1(O)C(=O)CO` [Dexamethasone, reference compound], in data set [3], the “Loss in body weight” value is recorded as 4.4%. Moreover, the “Inhibition of mouse ear swelling (DTH response)” value in the data set on BALB/cJW mice was 49%.

(Values after patent US10829506B2, “Amino- or ammonium-containing sulfonic acid, phosphonic acid and carboxylic acid derivatives and their medical use” (GRI Bio, Inc., priority 2011, dated 2020).)
